From publication PMC3147111 (European journal of immunology, 2010)

Target: DRB1*1501 (Homo sapiens, UniProt P01903+P01911)
Test: biochemical
Type: binding

## CC(C)C[C@H](NC(=O)[C@H](Cc1ccc(O)cc1)NC(=O)[C@H](C)NC(=O)[C@H](CCCNC(=N)N)NC(=O)[C@H](CC(C)C)NC(=O)[C@H](CCC(N)=O)NC(=O)[C@H](CCC(=O)O)NC(=O)[C@H](C)NC(=O)[C@@H](N)CCC(=O)O)C(=O)N[C@@H](CC(=O)O)C(=O)NCC(=O)N[C@H](C(=O)NCC(=O)N[C@H](C(=O)N[C@@H](CCC(=O)O)C(=O)O)C(C)C)[C@@H](C)O [A3 152–166]
  IC50: 48 nM
